The source of these data is PMC6117091, “The C. difficile clnRAB operon initiates adaptations to the host environment in response to LL-37” (PLoS Pathogens, 2018).

Values after ≈ are worked out from the molar mass of the structure shown.

Assay [1] has as its system C. difficile 630Δerm. In words: Minimum bactericidal concentration (MBC). Particulars: 1:10 dilution into BHIS, 24 h, 37°C, anaerobic. The class given is cell-based, Clostridioides difficile.
Assay [2] relates to C. difficile clnAB mutant (MC935). The assay is described as follows: Minimum bactericidal concentration (MBC). The class given is cell-based, Clostridioides difficile. The conditions noted are these: 1:10 dilution into BHIS, 24 h, 37°C, anaerobic.
Assay [3] relates to C. difficile clnAB mutant. The assay is described as follows: qRT-PCR of selected RNA-seq transcripts in LL-37. The conditions noted are these: 2 µg/ml LL-37; normalized to 630∆erm in BHIS; mean ± SEM, n ≥ 3.
For assay [4], the system named is C. difficile clnR mutant. In words: Growth in minimal medium with LL-37, maximum doubling time. The conditions noted are these: mean ± SD, n ≥ 3.

As to `CC[C@H](C)[C@H](NC(=O)[C@H](CCCCN)NC(=O)[C@H](CCC(=O)O)NC(=O)[C@H](CCCCN)NC(=O)[C@H](CO)NC(=O)[C@H](CCCCN)NC(=O)[C@H](CCCNC(=N)N)NC(=O)[C@H](Cc1ccccc1)NC(=O)[C@H](Cc1ccccc1)NC(=O)[C@H](CC(=O)O)NC(=O)CNC(=O)[C@H](CC(C)C)NC(=O)[C@@H](N)CC(C)C)C(=O)NCC(=O)N[C@@H](CCCCN)C(=O)N[C@@H](CCC(=O)O)C(=O)N[C@@H](Cc1ccccc1)C(=O)N[C@@H](CCCCN)C(=O)N[C@@H](CCCNC(=N)N)C(=O)N[C@H](C(=O)N[C@H](C(=O)N[C@@H](CCC(N)=O)C(=O)N[C@@H](CCCNC(=N)N)C(=O)N[C@H](C(=O)N[C@@H](CCCCN)C(=O)N[C@@H](CC(=O)O)C(=O)N[C@@H](Cc1ccccc1)C(=O)N[C@@H](CC(C)C)C(=O)N[C@@H](CCCNC(=N)N)C(=O)N[C@@H](CC(N)=O)C(=O)N[C@@H](CC(C)C)C(=O)N[C@H](C(=O)N1CCC[C@H]1C(=O)N[C@@H](CCCNC(=N)N)C(=O)N[C@H](C(=O)N[C@@H](CCC(=O)O)C(=O)N[C@@H](CO)C(=O)O)[C@@H](C)O)C(C)C)[C@@H](C)CC)C(C)C)[C@@H](C)CC` [LL-37], the MBC in assay [1] and in assay [2] was 20 µg/mL (≈ 4.45 µM) in each case. For the same compound, the “cstA (CD630_26000) relative expression” value in assay [3] came to 2.9 ± 1.2. In assay [3], the “iorA (CD630_23810) relative expression” value came to 20.5 ± 7.3. In addition, the “mtlA (CD630_23340) relative expression” value in assay [3] is given as 5.5 ± 4.3. Moreover, in assay [3], the “sigT (csfT; CD630_06770) relative expression” value was 1.2 ± 0.1. Besides, the “sigU (csfU; CD630_18870) relative expression” value in assay [3] is given as 3.1 ± 1.4. Also, the “vanZ1 (CD630_12400) relative expression” value in assay [3] is reported as 0.9 ± 0.2. The Doubling time in assay [4] (0.5 µg/ml LL-37, MM + 30 mM NAG) turned out to be 86.6 ± 2.5 min; in assay [4] (0.5 µg/ml LL-37, MM + 30 mM ethanolamine), 84.9 ± 4.6 min; in assay [4] (0.5 µg/ml LL-37, MM + 30 mM fructose) it was 72.4 ± 0.9 min; in assay [4] (0.5 µg/ml LL-37, MM + 30 mM glucose) it was 74.0 ± 1.7 min; in assay [4] (0.5 µg/ml LL-37, MM + 30 mM mannitol), 67.3 ± 1.5 min; in assay [4] (0.5 µg/ml LL-37, MM + 30 mM mannose), 78.4 ± 4.9 min. Also, the Doubling time in assay [4] (0.5 µg/ml LL-37, base MM) worked out at 74.1 ± 4.8 min.
